Test results: patent publication US20220265657A1, “ADMINISTRATION METHOD AND DOSAGE REGIMEN FOR TREATMENT OF NEURODEGENERATIVE DISEASES USING TRAMETINIB AND MARKERS” (GENUV INC., priority 2019, published 2022)
Where two headings read alike, the source gives them in different places.

What was measured:
[1] = test system: 5XFAD mice; conditions: 8-month old 5XFAD mice
[2] = test system: 5XFAD mice; test: Western blot of brain cortex lysates; type: in vivo
Protocol: Trametinib treatment: Trametinib (Medchemexpress, Monmouth Junction, N.J.) was micronized and suspended in the vehicle containing 5% mannitol, 1.5% hydroxypropyl methylcellulose and 0.2% sodium lauryl sulfate. For pharmacokinetic analysis, 0.05, 0.2 and 0.8 mg/kg of trametinib were orally administered to 7-week-old normal mice (ICR, n=5 per group) as a single administration. […] For studies on the change in pERK expression in normal mice and whole cell RNA sequencing study, 0.1 mg/kg/day of trametinib (in 4% DMSO+96% corn oil) was orally administered to 6-week old C57BL/6 mice (n=3 per group). Mice were sacrificed after 1, 2, 3, or 4 weeks of administration. 5XFAD mice (male, n=7˜10 per group) were divided into vehicle and trametinib treated groups. 12-month old mice received vehicle or 0.1 mg/kg of trametinib for 1 month by oral gavage once a day (These mice are referred to as “13-month old 5XFAD mice” in the Examples). […] Blood was obtained after completion of treatment.
Lysates were centrifuged at 13,000 rpm for 20 min at 4° C., and the protein content in the supernatant was determined using the Bradford assay (Bio-rad, Hercules, Calif.). For subcellular fractionation, cells were lysed with lysis buffer (250 mM Sucrose, 20 mM HEPES, pH 7.4, 10 mM KCl, 1.5 mM MgCl2, 1 mM EGTA, 1 mM EDTA, 1 mM DTT) containing protease inhibitor for 30 min on ice, followed by centrifugation at 720 g for 5 min at 4° C. Supernatants were centrifuged at 15,000 rpm for 10 min at 4° C., and the resulting supernatant was used as the cytosol fraction. After centrifugation at 720 g for 5 min, pellets were washed with lysis buffer and dissolved in nuclear lysis buffer (50 mM Tris HCl, pH 8.0, 150 mM NaCl, 1% NP40, 0.5% sodium deoxycholate, 0.1% SDS, 10% glycerol) as the nuclear fraction. Protein from each sample was subjected to 8%˜15% SDS-PAGE, and the resolved proteins were transferred to nitrocellulose or polyvinylidene fluoride membrane. […] The detected signals were quantified using a LAS-4000 system (Fuji Film, Tokyo, Japan).

[3] = test system: neurons and neural stem cells (NSCs); conditions: in vitro, even in the presence of cytotoxic oligomers of Aβ1-42; cited from earlier work
[4] = test system: 5XFAD mice; test: LTP recording (EPSCs) at hippocampal CA1 region; type: in vivo; conditions: 8-month old 5XFAD mice, oral administration
[5] = test system: patient with Alzheimer's disease; test: Therapeutic effects of trametinib in humans; type: in vivo, human; conditions: daily for at least four weeks, brain Cmax at least 0.25 ng/g
Protocol: Trametinib is administered to a patient with Alzheimer's disease in an amount that provides a mean peak trametinib concentration (Cmax) of at least 0.25 ng/g in the brain. The administration is performed daily for at least four weeks.

With `CC(=O)Nc1cccc(-n2c(=O)n(C3CC3)c(=O)c3c(Nc4ccc(I)cc4F)n(C)c(=O)c(C)c32)c1` [trametinib] as the molecule, how does the MBP levels ([1]; 0.05 mg/kg/day) read?
The MBP levels was “restored back to levels comparable to that of wild type mice”.

And the MBP levels ([1]; 0.1 mg/kg/day)?
The MBP levels was “restored back to levels comparable to that of wild type mice”.

What about the “autophagosome marker LC3-II level” value ([2]; 8-month old 5XFAD mice brain) of the same molecule?
Its value is “further increased”.

And the “level of mature cathepsin B” value ([2]; 8-month old 5XFAD mice brain)?
Its value is “seen to increase”.

And the “expression of presynaptic marker synaptophysin and postsynaptic marker PSD-95” value ([2]; brain cortex lysates of 5XFAD mice)?
The value was “Increased expression”.

What about the “neuronal differentiation and survival of neurons and NSCs” value [3] of the same molecule?
The value was “effective in inducing neuronal differentiation and promoting survival of neurons and neural stem cells (NSCs)”.

And the “long-term potentiation (LTP), EPSC slope” value [4]?
The value was “recovered in the trametinib-orally administered animals to a level almost comparable to that of the wild type control”.

What about the “behavioral and/or physiological symptoms associated with Alzheimer's disease” value [5] of the same molecule?
Its value is “reduces behavioral and/or physiological symptoms associated with Alzheimer's disease”.
